# Results: article PMC8861095, “Neurotoxicological profile of the hallucinogenic compound 25I-NBOMe” (Scientific Reports, 2022)
# Experiments:
# DNA = assay: Alkaline comet assay on nuclei from frontal cortex and hippocampus; type: in vivo, rat; settings: for DNA damage (tail moment): single and repeated (× 7) 0.3 mg/kg sc, 72 h after administration, vs control
# Description: (§1) Animals received single or multiple (once per day for seven days) subcutaneous injections of 25I-NBOMe dissolved in 0.9% NaCl at a dose of 0.3 mg/kg/2 ml. The control group was treated with 0.9% NaCl solution in the same way. All procedures were performed 72 h after the last injection. The time point of 72 h was chosen due to the possible generation of neurotoxicity via oxidative stress caused by reactive oxygen species (ROS). Exceptionally, for initial 25I-NBOMe brain distribution studies, rats received the drug in the dose of 1 and 10 mg/kg and were sacrificed 15 min after the drug administration. The rat blood plasma and brain tissues were collected immediately after rats’ decapitation. LSD (0.05 mg/kg, ip) was given daily for 7 days in a volume of 1 ml/kg, while MDMA 5 mg/kg, ip was injected in a volume of 2 ml/kg every second day (overall 4 injections).
# The alkaline comet assay was performed with the use of CometAssay® Reagent Kit for Single Cell Gel Electrophoresis Assay. At 72 h after the acute and chronic treatment with 25I-NBOMe (0.3 mg/kg, sc × 7 days), LSD (0.05 mg/kg, ip × 7 days) or MDMA (5 mg/kg, ip × 4 doses every second day) animals were sacrificed by decapitation and the frontal cortex (that consist of the sum of FC and mPFC) and hippocampus were dissected. After homogenization and several purification and centrifugation stages (as described previously in[17]), the nuclear suspension was obtained using a sucrose gradient (2.8 M/2.6 M, bottom to top). The nuclear fraction was mixed with low melting point agarose and transferred immediately onto CometSlides™. The following steps, including membrane lysis, DNA unwinding, alkaline electrophoresis, and staining (SYBR® Gold), were carried out according to Trevigen CometAssay® protocol. Stained sections were acquired and analyzed under a fluorescence microscope (Nikon Eclipse50i, Japan) equipped with a camera and NIS Elements software. The data was analyzed using OpenComet software v.1.3 (cometbio.org), a plugin of ImageJ program v.1.47 (NIH, Bethesda, MD, USA). DNA damage was presented as a tail moment. Tail moment incorporates a measure of both the smallest detectable size of migrating DNA (reflected by the comet tail length) and the number of damaged pieces (represented by the intensity of DNA in the tail).
# [1] = tested on: NeuN-, S100β- and IBA-1-immunopositive cells; assay: Immunohistochemistry with stereological count of cortical and hippocampal cells; type: in vivo, rat; settings: chronic 0.3 mg/kg × 7 sc, 72 h, vs control
# Description: as §1
# Animals were deeply anesthetized and transcardially perfused with 0.9% NaCl followed by 4% paraformaldehyde (PFA) in 0.1 M phosphate-buffered saline (PBS). After 24 h of fixation in 4% PFA (4 °C), 300 µm sections were cut through the frontal cortex (FC) and medial prefrontal cortex (mPFC) as well as hippocampus using a VT-1000S vibratome (Leica Microsystems, Heidelberg, Germany). Free-floating sections were processed for single staining of neurons with neuronal-specific nuclear protein (NeuN), glia with specific calcium-binding protein B (S100β), and microglia cells with ionized calcium-binding adaptor molecule 1 (IBA-1) antibodies. Subsequently, brain sections were rinsed and incubated for 1 h in a blocking buffer: 0.01 M PBS containing 0.3% Triton X-100 and 5% average horse, goat, or rabbit serum. After that, the sections were incubated for 48 h at 4 °C with one of the following primary antibodies: monoclonal anti-NeuN (1:1000), monoclonal anti-S100β-subunit (1:1000) or polyclonal IBA-1 (1:500) diluted in 0.01 M PBS containing 0.3% Triton X-100 (PBST) and 3% average horse or goat serum. Primary antibody binding was visualized with biotinylated secondary antibodies, the Avidin/Biotin Complex (Vectastain Elite ABC Kit) according to recommended by manufacturer concentration and 3,3′-diaminobenzidine tetrahydrochloride (DAB, 10 mg/50 ml and 0.025% H2O2) solution to give a brown color to NeuN, S100β and IBA-1-immunoreactive cells. For data presentation, digital images were captured using a digital camera CX 9000 (Bioscience Microbrightfield, Inc., Germany) attached to a Leica microscope (CTR 6000) with 2.5 and 5.0 dry or 63 × and 100 × oil objectives (Leica) that was controlled by Stereo Investigator software (v.8.10.2, 1995–2007 Bioscience Microbrightfield, Inc., Germany). The final photomicrographs were composed using the Adobe Photoshop program. The numbers of NeuN-, S100β- and IBA-1-immunopositive cells in the analyzed brain regions were estimated using unbiased stereological methods[35],[36]. Briefly, every sixth section from the systematic random sampling along the rostrocaudal axis was analyzed with a 63 ×/1.4–0.7 lens using the Stereo Investigator stereology system software. The cells appearing in the upper focal plane were omitted to prevent the counting of cell caps (− 5 μm of the topmost surface of the section). Immunopositive cells were marked when they were within the optical dissectors, which comprised a focal plane of 1600 μm^2 × 15 μm. The total numbers of NeuN, S100β- and IBA-1-immunopositive cells in the FC, mPFC, and hippocampus were automatically calculated by the Stereo Investigator software. In addition, the volume of the cortical regions and hippocampus was calculated using the Cavalieri Estimator option of the Stereo Investigator software.
# [2] = medial prefrontal cortex (mPFC)
compound,measurement,setting,value
"COc1cc(CCNCc2ccccc2OC)c(OC)cc1I [25I-NBOMe, 4-Iodo-2,5-dimethoxy-N-(2-methoxybenzyl)phenethylamine]",DNA damage (tail moment),DNA; frontal cortex,produced DNA damage
same,DNA damage after multiple injections compared with a single dose,"DNA; hippocampus, 0.3 mg/kg sc × 7 vs single, 72 h",stronger than after a single dose
same,DNA damage (tail moment),DNA; hippocampus,produced DNA damage
same,Number of IBA-1-immunopositive cells (microglia),[1]; frontal cortex (FC),significantly decreased
same,Number of NeuN cells (neurons),[1]; frontal cortex (FC),did not notice any significant change
same,Number of S100β-immunopositive cells (astrocytes),[1]; frontal cortex (FC),significantly decreased
same,Number of neuronal and glial cells,"[1]; hippocampal regions CA1, CA3/CA2 and dentate gyrus",did not show any changes
same,Number of NeuN cells (neurons),[1]; [2],did not notice any significant change
same,Number of S100β-immunopositive cells (astrocytes),[1]; [2],significant decrease
